Activity calls are given as the source filed them.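 Rule for the calls: active = mean IC50 at or below 10 µM; inactive = the rest.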 A value given as a limit tells only on which side of the number the result lay.

The experiment concerns H9c2 cardiomyocytes, H2O2 protection, ATPLite viability, 2 h. As to the kind of experiment: H2O2-induced H9c2 cell death suppression – ATPLite luminescence, set 2, dose response (AID 602211;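 note: potency is for protection so actives keep ATP signal up against peroxide killing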). (In general: Cellular ATP, detected with luciferase, serves as a proxy for viable cell number.)
Turning to `COC(=O)c1ccccc1NC(=O)c1ccc2nccnc2c1`, the IC50 (in general, the concentration that inhibits the measured activity by half) was 50.6 µM (inactive).

Consider `O=C(c1cc(-c2cccnc2)nc2ccc(Br)cc12)N1CCN(c2ncccn2)CC1`, for which the half-inhibitory concentration (IC50) is 3.6 µM.

As to `COc1ccccc1CN(C(=O)CNC(=O)c1ccco1)C(C(=O)NCC1CCCO1)c1ccccc1` (stereo unspecified), the IC50 was 9.67 µM.

As to `COc1cc(-c2cc(C(=O)NCc3ccco3)c3ccccc3n2)cc(OC)c1OC`, the IC50 is 13.5 µM (inactive).

Regarding `COc1cc(OC)cc(C(=O)Nc2ccc(C(=O)Nc3ccccc3OC)cc2)c1`, the IC50 is 10.2 µM (inactive).

In the case of `Cc1nn(-c2ccccc2)c(C)c1/C=N/NC(=O)c1cc(C(C)(C)C)[nH]n1`, the IC50 was 26.5 µM (inactive).

`COc1cccc(CN(C)C(=O)C(Cc2ccccc2)NC(=O)c2ccccc2)c1OC` (stereo unspecified): the IC50 was 6.8 µM.

In the case of `CCOc1ccc(CCNC(=O)c2cc3c(C)nccc3[nH]c2=O)cc1OCC`, the IC50 was 42.9 µM (inactive).

As for `COC(=O)c1ccc(C(=O)OC)c(NC(=O)COC(=O)C23CC4CC(CC(O)(C4)C2)C3)c1`, the half-inhibitory concentration (IC50) was 3.4 µM.

With `CC(=O)NCCNc1nc2c(-c3ccccc3)nnn2c2ccccc12`, the 50% inhibitory concentration (IC50) was 2.56 µM.

With `COC(=O)c1[nH]c2cc(OC)c(OC)cc2c1/C=N/Nc1ccccc1`, the concentration for half-maximal inhibition (IC50) is 6.78 µM.

Take `COc1cc(-c2cc(C(=O)Nc3cccc(C(C)=O)c3)c3ccccc3n2)cc(OC)c1OC`: the IC50 is 3.59 µM.

`CCOC(=O)c1ccc(NC(=O)c2nc[nH]c2C(=O)NCCCCCNC(=O)OC(C)(C)C)cc1`: the IC50 was 4.43 µM.

As for `COC(=O)c1ccc(C(C(=O)NCc2ccccc2)N(Cc2cccs2)C(=O)c2cnccn2)cc1` (stereo unspecified), the IC50 was 5.53 µM.

`COc1ccc(OC)c(NC(=O)COC(=O)c2c3c(nc4ccccc24)CCCC3)c1`: the 50% inhibitory concentration (IC50) is 1.15 µM.

Take `COc1ccc(-c2cc(-c3ccc(O)cc3)nc(N)c2C#N)cc1OC`: the IC50 is > 79 µM (inactive).

With `Nc1c(C(=O)N/N=C/c2cccnc2)oc2nc(-c3ccco3)cc(-c3ccco3)c12`, the half-maximal inhibitory concentration (IC50) is 2.45 µM.

As to `CC(=O)c1ccc(-c2ccc(C(=O)Nc3nc(-c4ccccn4)cs3)o2)cc1`, the IC50 was 1.57 µM.

In the case of `COc1ccc(-c2cc(C(=O)NNC(=O)c3csc(N4CCOCC4)n3)c3ccccc3n2)cc1`, the IC50 is 14.1 µM (inactive).

Consider `COc1cc(C(=O)Nc2nc(-c3cccs3)cs2)cc(OC)c1OC`, for which the IC50 is 1.78 µM.

Take `Brc1cc2c(cc1/C=N/Nc1nc(N3CCCC3)nc(N3CCOCC3)n1)OCO2`: the concentration for half-maximal inhibition (IC50) was 8.27 µM.

`COc1ccc(C=CC(=O)c2ccc3cc(OC)c(OC)cc3c2)cc1OC`: the IC50 is 2.47 µM.

As for `CCC1(CC)NC(=O)N(CC(=O)OCC(=O)Nc2ccccc2[N+](=O)[O-])C1=O`, the IC50 was 37.3 µM (inactive).

Take `O=C(Nc1cccc(Cl)c1)c1nc[nH]c1C(=O)NCCCNC(=O)c1[nH]cnc1C(=O)Nc1cccc(Cl)c1`: the IC50 was 1.36 µM.

For the compound `CCN(CC)C(=O)c1[nH]cnc1C(=O)NCC(=O)OCc1ccccc1`, the IC50 is 6.88 µM.

On to `Cc1ccc(C)c(C(=O)Nc2cc(C)nn2-c2nc(C)cc(C)n2)c1`, for which the IC50 is 65.6 µM (inactive).

For the compound `O=CNc1cc(-c2ccc(C(=O)NC3CC3)cc2)cn2c(-c3ccc(F)c(Cl)c3)cnc12`, the IC50 was 5.46 µM.

Regarding `O=C(NCCN1CCOCC1)c1cnn2c(-c3ccccc3)cc(-c3ccccc3)nc12`, the IC50 was > 79 µM (inactive).

`COc1cccc(-c2nn(-c3ccccc3)cc2C(=O)Nc2nccs2)c1`: the IC50 is 12.8 µM (inactive).

As to `Cc1ccc(-c2nnc3ccc(SCC(=O)N4CCCc5ccccc54)nn23)cc1`, the IC50 was > 79 µM (inactive).

`CCn1nc(C(=O)NNC(=O)c2cc(Cl)ccc2OC)c2ccccc2c1=O`: the IC50 was 30 µM (inactive).

Turning to `COc1ccc(Cl)cc1NC(=O)CCS(=O)(=O)c1cc2c(cc1C)NC(=O)CO2`, the half-maximal inhibitory concentration (IC50) is 8.29 µM.

Turning to `CCOC(=O)c1c(C)[nH]c(O)c1C=Nc1ccc(Cl)cc1`, the IC50 was 34.4 µM (inactive).

On to `CCC(=O)N1CCN(c2ccccc2NC(=O)c2ccc(-c3cccc([N+](=O)[O-])c3)o2)CC1`, for which the concentration for half-maximal inhibition (IC50) is 1.99 µM.

As for `CCN(CC)c1ccc(C2C(C(=O)OC(C)C)C(=O)CC(C)(O)C2C(=O)OC(C)C)cc1` (stereo unspecified), the IC50 was 7.99 µM.

On to `COc1cc(C(=O)Nc2ccc(NC(=O)c3cccc(Cl)c3)nc2)cc(OC)c1OC`, for which the half-inhibitory concentration (IC50) was 2.96 µM.

For `COc1ccc(N/C=C(\C#N)c2nc3ccccc3n2C)c(OC)c1`, the 50% inhibitory concentration (IC50) is 3.73 µM.

On to `COc1ccccc1-c1cc(NC(C)=O)c2ncc(-c3cccc(C(C)=O)c3)n2c1`, for which the IC50 was 11.1 µM (inactive).

Regarding `Brc1ccc(-c2nn3c(-c4ccccn4)nnc3s2)o1`, the IC50 is 27.4 µM (inactive).

In the case of `CCC(Oc1ccccc1)C(=O)Nc1ccccc1C(=O)N1CCCCC1` (stereo unspecified), the IC50 was 36.2 µM (inactive).

On to `COCCn1nnnc1CN(CCc1ccccc1)Cc1cc2cc(OC)ccc2[nH]c1=O`, for which the IC50 was 5.12 µM.

`CCn1c(SCC(=O)Nc2ccccc2N2CCCCC2)nc2c1c(=O)n(C)c(=O)n2C`: the IC50 was > 79 µM (inactive).

With `C#CCOc1nc(Nc2cccc([N+](=O)[O-])c2)nc(OCC#C)n1`, the IC50 was > 79 µM (inactive).

In the case of `COc1ccc(COc2cc(-c3cccc(OC)c3)nc3ccc(NC(=O)c4ccc(OC)cc4)cc23)cc1`, the concentration for half-maximal inhibition (IC50) is 2.42 µM.

On to `O=C(N/N=C/c1ccccn1)c1cc(-c2cccc3ccccc23)n[nH]1`, for which the IC50 was 6.66 µM.

As to `Fc1ccc(CSc2ccc3nnc(-c4cccnc4)n3n2)cc1`, the IC50 is 6.22 µM.

Turning to `CC(=O)Nc1ccc(C(=O)N/N=C/c2ccccc2OC(=O)c2ccc(Cl)cc2)cc1`, the IC50 is 13.6 µM (inactive).

`CC1Nc2ncnc(N3CCN(c4ccccc4)CC3)c2N(Cc2ccc(Cl)cc2)C1=O` (stereo unspecified): the IC50 is 5.41 µM.

Take `Cc1ccccc1N(C(=O)c1snc(C(N)=O)c1N)C(C(=O)NCc1ccccc1)c1ccc(O)cc1` (stereo unspecified): the IC50 was 6.3 µM.

For the compound `O=c1[nH]c(CSc2nnc(-c3cccnc3)n2C2CCCCC2)nc2ccccc12`, the IC50 was 48.2 µM (inactive).

For the compound `Cc1ccc(C(C(=O)NCc2ccccc2)N(Cc2ccco2)C(=O)c2snc(C(N)=O)c2N)o1` (stereo unspecified), the half-inhibitory concentration (IC50) is 1.8 µM.

As for `COC(=O)c1cc2c(-c3ccccc3)cc3ccccn3c-2c1C(=O)OC`, the half-inhibitory concentration (IC50) is 6.44 µM.

On to `CCC(C)N1C(=O)S/C(=C/c2ccc3c(c2)n(C)c(=O)n3C)C1=O` (stereo unspecified), for which the IC50 is > 79 µM (inactive).

In the case of `COc1ccc(C(C(=O)NCc2ccccc2)N(Cc2ccco2)C(=O)c2snc(C(N)=O)c2N)cc1` (stereo unspecified), the IC50 is 3.63 µM.

Turning to `CCOc1cccc(Nc2cc3n(c(=O)n2)CCc2cc(OC)c(OC)cc2-3)c1`, the IC50 was 23 µM (inactive).

As to `NC(=O)c1cccc(-c2coc3c(C(=O)NCCc4ccccc4)cccc23)c1`, the IC50 is > 79 µM (inactive).

Consider `CC(C)(C)OC(=O)CNC(=O)c1[nH]cnc1C(=O)Nc1ccc(CNC(=O)OC(C)(C)C)cc1`, for which the IC50 was 2.15 µM.

For `CC(=O)Nc1ccc(S(=O)(=O)N(Cc2cccnc2)Cc2cc3ccccc3[nH]c2=O)cc1`, the IC50 was 1.51 µM.

On to `COc1cc(/C=N/NC(=O)c2cccnc2)ccc1OS(=O)(=O)c1ccc(F)cc1`, for which the half-maximal inhibitory concentration (IC50) was 3.17 µM.

On to `Cc1nc2ccccc2c2c(N)c3ccccc3n12`, for which the IC50 was 14.6 µM (inactive).

In the case of `NS(=O)(=O)c1ccc(CCNc2ccn3nc(-c4ccc(OCCN5CCOCC5)cc4)cc3n2)cc1`, the IC50 is 7.72 µM.

For `COc1ccc(CSc2nc3ccccc3c(=O)[nH]2)cc1F`, the IC50 is 8.59 µM.

For `Cc1ccc(C=NNc2nc3c([nH]2)c(=O)n(C)c(=O)n3C)cc1`, the half-inhibitory concentration (IC50) was 3.93 µM.

For `CCN(CC(=O)Nc1ccc(OC)cc1)C(=O)c1cc(-c2cccs2)nn1-c1ccccc1`, the 50% inhibitory concentration (IC50) was 2.06 µM.

As to `COc1ccc(NC(=O)c2cc(-c3ccc(OC)c(OC)c3)nc3ccccc23)c(OC)c1`, the 50% inhibitory concentration (IC50) is 8.09 µM.

Take `COc1ccc(-c2cc(NC=O)c3ncc(-c4ccc(C(C)=O)cc4)n3c2)cn1`: the half-inhibitory concentration (IC50) is 4.52 µM.

For `COc1ccc(C(=O)Nc2nc(-c3ccccn3)cs2)cc1S(=O)(=O)N1CCOCC1`, the IC50 is 11.9 µM (inactive).

With `CCn1c(O)c(/C=N/N=C2CCCCC2)c2cc(C3=NNC(=O)CC3)ccc21`, the concentration for half-maximal inhibition (IC50) is 9.96 µM.

Take `Cc1ccc(NC(=O)c2cc(=O)c3ccccc3o2)cc1S(=O)(=O)N1CCOCC1`: the IC50 is 5.15 µM.

Regarding `COc1ccc(/C=N/NC(=O)c2ccc(COc3cccc4cccnc34)cc2)cc1OC`, the IC50 is 3.89 µM.

As for `CC(=O)c1ccc(-c2cnc3c(NC=O)cc(-c4cccc(NS(C)(=O)=O)c4)cn23)cc1`, the IC50 was 8.18 µM.

`CC(C(=O)NC1CCCC1)N(C(=O)Cn1nnc(-c2ccc(F)cc2)n1)c1ccccc1F` (stereo unspecified): the IC50 was 1.68 µM.

As for `COC(=O)c1cccc(Nc2nc(-c3cccnc3)nc3ccccc23)c1`, the IC50 was 7.12 µM.

Take `O=C(Nc1cccnc1)c1sc(Nc2ccccc2)nc1-c1ccccc1`: the IC50 was 8.72 µM.

Turning to `CCn1c(O)c(/C=N/N=C/c2ccccc2)c2ccc(C3=NNC(=O)CC3)cc21`, the IC50 was 4.56 µM.

As to `COCc1c(C(=O)Nc2ccc3nc(N4CCOCC4)sc3c2)oc2ccccc12`, the IC50 is > 79 µM (inactive).

Take `CN(C)S(=O)(=O)n1cc(/C=C(\NC(=O)c2ccccc2F)C(=O)NCCN2CCOCC2)c2ccccc21`: the IC50 is 30.8 µM (inactive).

Consider `COc1cccc(/C=N/NC(=O)c2ccncc2)c1OC(=O)c1ccc(Br)cc1`, for which the IC50 was 15.4 µM (inactive).

`NS(=O)(=O)c1ccc(N=Cc2c(O)n(-c3nccs3)c(=O)c3ccccc23)cc1`: the IC50 was 4.2 µM.

`CCOc1ccc2nc(NC(=O)CN3CCC(n4nnc5cc(F)ccc54)CC3)sc2c1`: the IC50 was 2.37 µM.

In the case of `COc1ccc(-c2cc(C(=O)N(C)Cc3ccc(OC)c(OC)c3OC)c3ccccc3n2)cc1OC`, the concentration for half-maximal inhibition (IC50) was 4.04 µM.

As for `COc1cccc(-c2cnc3c(NC=O)cc(-c4cc(OC)c(OC)c(OC)c4)cn23)c1`, the IC50 was 3.61 µM.

As to `COc1ccc(NC(=O)c2cc(-c3ccccn3)nc3ccccc23)cc1S(=O)(=O)N(C)C`, the IC50 is 2.46 µM.

As for `CC(=O)c1cccc(Nc2nc3ccccc3n3cnnc23)c1`, the IC50 is 3.87 µM.

Turning to `COc1ccc2[nH]c(=O)c(CN(Cc3cccnc3)S(=O)(=O)c3ccccc3F)cc2c1`, the half-inhibitory concentration (IC50) was 0.43 µM.

Take `Cn1c(-n2c(CCCN3C(=O)c4ccccc4C3=O)nc3ccccc3c2=O)nc2ccccc21`: the IC50 was 11.6 µM (inactive).

The values are drawn from PubChem BioAssay AID602211 (Sanford-Burnham Center for Chemical Genomics, 2012).
